Laboratory results: patent publication US12534501B2, “Targeting deregulated Wnt signaling in cancer using stabilized alpha-helices of BCL-9” (Dana-Farber Cancer Institute, Inc., priority 2011, dated 2026)
Numbered stars: 1 amine (or outer) side, 2 acyl side, 3 side chain; on linkers, the order of the positions; unused ones are H or OH. Bridge positions count the residues as written; N and C are the ends. Square brackets hold non-standard residues; d marks the D form. Peptide text beside a SMILES is read from it. ξ: configuration not given here. ξαMeNle(6-ylidene) = CC(CCCC=[*:3])(N[*:1])C(=O)[*:2]; Nle = CCCC[C@H](N)C(=O)O

Test system: HUVEC
Test: In vitro angiogenesis assay (capillary tube formation)
Type: cell-based, human
Details: HUVEC with supernatants of Colo320 or MM1S cells treated at 5 μM for 24 h; read at 5 h
Experimental: Angiogenesis was evaluated as previously described (Mani, M. et al. Cancer Res 69, 7577-86 (2009)) using an in vitro angiogenesis assay kit (Millipore). For capillary tube formation analysis, HUVEC were cultured on polymerized matrix gel and exposed to supernatant media collected from Colo320 or MM1S cells treated with vehicle (0.5% DMSO), SAH-BCL9B peptides (5 μM) for 24 h. The number of capillary tubes formed after 5 h treatment at 37° C. was determined by counting 5 randomly selected fields at 40× magnification, according to manufacture's instructions. HUVEC cultured in VEGF media and VEGF-free media were used as positive and negative controls, respectively. Cellular invasion assays were performed using Matrigel Boyden chambers (BD Biosciences) as described (Mani, M. et al. Cancer Res 69, 7577-86 (2009)). The reported data represent the average of three independent experiments performed in triplicate. See results in FIG. 3H-FIG. 3I.

SMILES: CCCC[C@H](NC(=O)[C@H](CCCNC(=N)N)NC(=O)[C@H](CCC(N)=O)NC(=O)[C@@H](NC(=O)C1(C)CCCC=CCCCC(C)(NC(=O)[C@H](CC(C)C)NC(=O)[C@H](CO)NC(=O)[C@H](CCCNC(=N)N)NC(=O)[C@H](CCC(=O)O)NC(=O)[C@H](CCCNC(=N)N)NC(=O)[C@H](Cc2c[nH]cn2)NC(=O)[C@H](CCC(=O)O)NC(=O)[C@H](CC(C)C)NC(=O)[C@H](CCC(N)=O)NC(=O)[C@H](CCC(=O)O)NC(=O)[C@H](CCC(N)=O)NC(=O)[C@H](CO)NC(=O)[C@H](CC(C)C)NC(C)=O)C(=O)N[C@@H]([C@@H](C)O)C(=O)N[C@@H](CC(C)C)C(=O)N[C@@H](CCCNC(=N)N)C(=O)N1)[C@@H](C)CC)C(=O)N[C@@H](CC(C)C)C(=O)N[C@@H](Cc1ccccc1)C(N)=O (stereo partly shown) [SAH-BCL9B] (Ac-LSQEQLEHRERSL[ξαMeNle(6-ylidene)]TLR[ξαMeNle(6-ylidene)]IQR[Nle]LF-NH2; staple 14-18)
- capillary tube formation: reduced capillary tube formation
